Experimental data as given in patent US20070254882A1, “Sulfamide Derivatives and Pharmaceutical Composition for Upregulation of Lipid Metabolism Comprising Same” (CRYSTAL GENOMICS, INC., priority 2004, published 2007).

Key:
human PPAR α [1] = biological target: T1, human PPAR α (Homo sapiens, UniProt Q07869); experiment: Exogeneous PPAR α agonist assay (GAL4 DNA binding domain/PPAR α ligand binding domain, luciferase) in 293T cells; type: cell-based; parameters: scale not given here; settings: 25 μM compound, 48 hours, luciferase activity increase relative to the control
T1 construct: expressed in transfected cells; host or cells: HepG2 (ATCC HB-8065) or 293T cells (ATCC CRL-1573)
T1 sequence (Q07869 239-466 limits assumed): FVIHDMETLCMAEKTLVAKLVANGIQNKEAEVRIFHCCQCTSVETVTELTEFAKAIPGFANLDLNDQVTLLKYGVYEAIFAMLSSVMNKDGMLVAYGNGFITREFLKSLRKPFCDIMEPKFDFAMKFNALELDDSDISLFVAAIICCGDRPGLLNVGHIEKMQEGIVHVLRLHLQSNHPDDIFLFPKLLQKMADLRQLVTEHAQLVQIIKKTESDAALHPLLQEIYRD
In short: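 HepG2 or 293T cells (2×10^4/well) lipofectamine-transfected 3 hours with PPAR α, UAS firefly-luciferase and Renilla-luciferase constructs. Compounds then added at 25 μM final and incubated 48 hours at 37° C. PPAR α activation measured as dual firefly/Renilla luciferase luminescence.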

human PPAR α [2] = biological target: T1, human PPAR α; experiment: Exogeneous PPAR α agonist assay (GAL4 DNA binding domain/PPAR α ligand binding domain, luciferase) in HepG2 cells; type: cell-based; settings: 25 μM compound, 48 hours, luciferase activity increase relative to the control
Method: Step 1) Exogeneous PPAR α Agonist Assay
Cross-activation assay of the compounds of Examples 1 to 134 against human PPAR α was carried out using a DNA construct of PPAR α including its ligand binding domain and GAL4 DNA binding domain (Sher et al., Biochemistry 32, 5598-5604, 1993) to analyze whether any of the compounds binds to the ligand binding domain of PPAR α expressed by the construct to affect the PPAR α activity. When the GAL4 DNA binding domainm which is fused with PPAR α ligand binding domain, binds to UAS (upstream activation sequence) of firefly-luciferase, the luciferase is expressed. Therefore, the effect of each of the compounds of Examples on PPAR α activation can be evaluated by analyzing the activation of luciferase.
Specifically, 2×10^4 of HepG2 (ATCC HB-8065) or 293T cells (ATCC CRL-1573) were aliquotted into each well of a 96-well plate and cultured for overnight at 37° C. in a CO2 incubator (culture condition: DMEM, 10% FBS and 1% antibiotics).
The transformation of PPAR α DNA was traced as follows. First, a mixture of the following ingredients in amounts per well; Solution A (Promega) containing 50 ng of full length human PPAR α DNA, 50 ng of firefly-luciferase construct, 5 ng of Renilla-luciferase construct, 1.0 μl of PLUS™ reagent, and 8.3 μl of a serum-free medium containing no antibiotics; was prepared and kept at room temperature for 15 min. Solution B, which contained 0.5 μl of Lipofectamine™ reagent and 9.5 μl of serum-free medium without antibiotics per well, and Solution C, which contained 50 μl of serum-free medium per well), were prepared. Solutions A, B and C were mixed together to prepare lipofectamin-DNA complex, and the mixture was kept at room temperature for 15 min. Single layer of cells on each well of a 96-well plate were washed with serum-free DMEM, 70 μl of lipofectamine-DNA complex prepared above was added thereto, the plate was incubated at 37° C. in a 5% CO2 incubator for 3 hours to transform the cells, and […] of a diluted solution of each of the compounds of Examples 1 to 134 per well was added to each well to a final concentration 25 μM, and incubated at 37° C. in a CO2 incubator for 48 hours. Then, the medium was removed, 50 μl of passive lysis buffer (Promega) was added thereto, and the plate was shook at room temperature for 20 min to lysis cells. 40 μl of Luciferase Assay reagent of Dual Luciferase Kit […] per 20 μl of cell lysis buffer was added to the plate, followed by reacting at 20° C. for 8 seconds, and 40 μl of Stop & Glo reagent (Promega) as a stop solution was added thereto to quench the reaction. The luminescence intensities of F-luciferase and R-luciferase were measured with MicroLumat Plus (Berthord Technology).

| Activity at 25 μM Step 1 293T cell (human PPAR α [1]) | Activity at 25 μM Step 1 HepG2 cell (human PPAR α [2]) | Structure (SMILES) |
| --- | --- | --- |
| 3 | 54 | CCN(CC)S(=O)(=O)N(CC(=O)O)Cc1cccc(OCc2nc(-c3ccc(C(F)(F)F)cc3)oc2C)c1 [Example 7, [N—(N,N-diethylamino)sulfonyl-N-[3-[[2-(4-trifluoromethylphenyl)-5-methyloxazol-4-yl]methoxy]benzyl]amino]acetic acid] |
| 2 | 44 | Cc1oc(-c2ccc(C(F)(F)F)cc2)nc1CCOc1cccc(CN(CC(=O)O)S(=O)(=O)N2CCCCC2)c1 [Example 71, [N-(piperidinyl)sulfonyl-N-[3-[2-[2-(4-trifluoromethylphenyl)-5-methyloxazol-4-yl]ethoxy]benzyl]amino]acetic acid] |
| 2 | 50 | CCN(CC)S(=O)(=O)N(CC(=O)O)Cc1cccc(OCCc2nc(-c3ccc(C(F)(F)F)cc3)oc2C)c1 [Example 67, [N—(N,N-diethylamino)sulfonyl-N-[3-[2-[2-(4-trifluoromethylphenyl)-5-methyloxazol-4-yl]ethoxy]benzyl]amino]acetic acid] |
| 5 | 34 | Cc1oc(-c2ccc(C(F)(F)F)cc2)nc1COc1cccc(CN(CC(=O)O)S(=O)(=O)N(C)c2cccc(F)c2)c1 [Example 23, [N—[N-(3-fluorophenyl)-N-methylamino]sulfonyl-N-[3-[[2-(4-trifluoromethylphenyl)-5-methyloxazol-4-yl]methoxy]benzyl]amino]acetic acid] |
| 4 | 44 | Cc1oc(-c2ccc(C(F)(F)F)cc2)nc1COc1cccc(CN(CC(=O)O)S(=O)(=O)N2CCCCC2)c1 [Example 11, [N-(piperidinyl)sulfonyl-N-[3-[[2-(4-trifluoromethylphenyl)-5-methyloxazol-4-yl]methoxy]benzyl]amino]acetic acid] |
| 2 | 11 | Cc1oc(-c2ccc(C(F)(F)F)cc2)nc1CCOc1cccc(CN(CC(=O)O)S(=O)(=O)N(C)C(C)C)c1 [Example 68, [N—(N-isopropyl-N-methylanmo)sulfonyl-N-[3-[2-[2-(4-trifluoromethylphenyl)-5-methyloxazol-4-yl]ethoxy]benzyl]amino]acetic acid] |

Continued, compound first:

| Structure (SMILES) | Activity at 25 μM Step 1 293T cell (human PPAR α [1]) | Activity at 25 μM Step 1 HepG2 cell (human PPAR α [2]) |
| --- | --- | --- |
| Cc1ccc(-c2nc(CCOc3cccc(CN(CC(=O)O)S(=O)(=O)N(C)C(C)C)c3)c(C)o2)cc1 [Example 64, [N—(N-isopropyl-N-methylamino)sulfonyl-N-[3-[2-[2-(4-methylphenyl)-5-methyloxazol-4-yl]ethoxy]benzyl]amino]acetic acid] | 2 | 30 |
| C=CCN(C)S(=O)(=O)N(CC(=O)O)Cc1cccc(OCCc2nc(-c3ccc(C(F)(F)F)cc3)oc2C)c1 [Example 69, [N—(N-allyl-N-methylamino)sulfonyl-N-[3-[2-[2-(4-trifluoromethylphenyl)-5-methyloxazol-4-yl]ethoxy]benzyl]amino]acetic acid] | 2 | 40 |
| Cc1oc(-c2ccc(C(F)(F)F)cc2)nc1CCOc1cccc(CN(CC(=O)O)S(=O)(=O)N(C)c2cccc(F)c2)c1 [Example 82, [N—[N-(3-fluorophenyl)-N-methylamino]sulfonyl-N-[3-[2-[2-(4-trifluoromethylphenyl)-5-methyloxazol-4-yl]ethoxy]benzyl]amino]acetic acid] | 2 | 26 |
| CN(C)S(=O)(=O)N(CC(=O)O)Cc1cccc(OCCc2coc(-c3ccccc3)n2)c1 [Example 131, [N—(N,N-dimethylarino)sulfonyl-N-[3-[(2-phenyloxazol-4-yl)ethoxy]benzyl]amino]acetic acid] | 5 | 41 |
| CCN(CC)S(=O)(=O)N(CC(=O)O)Cc1ccc(OCCc2nc(-c3ccc(C)cc3)oc2C)cc1 [Example 101, [N—(N,N-diethylamino)sulfonyl-N-[4-[2-[2-(4-methylphenyl)-5-methyloxazol-4-yl]ethoxy]benzyl]amino]acetic acid] | 4 | 45 |
| COc1ccc(N(C)S(=O)(=O)N(CC(=O)O)Cc2cccc(OCc3nc(-c4ccc(C(F)(F)F)cc4)oc3C)c2)cc1 [Example 22] | 4 | 49 |
| CCN(c1cccc(C)c1)S(=O)(=O)N(CC(=O)O)Cc1cccc(OCCc2nc(-c3ccc(C(F)(F)F)cc3)oc2C)c1 [Example 80, [N—(N-ethyl-N-m-tolylamino)sulfonyl-N-[3-[2-[2-(4-trifluoromethylphenyl)-5-methyloxazol-4-yl]ethoxy]benzyl]amino]acetic acid] | 5 | 30 |
| CCN(c1cccc(C)c1)S(=O)(=O)N(CC(=O)O)Cc1ccc(OCCc2nc(-c3ccc(C)cc3)oc2C)cc1 [Example 111, [N—(N-ethyl-N-m-tolylamino)sulfonyl-N-[4-[2-[2-(4-methylphenyl)-5-methyloxazol-4-yl]ethoxy]benzyl]amino]acetic acid] | 5 | 25 |
| Cc1oc(-c2ccccc2)nc1COc1cccc(CN(CC(=O)O)S(=O)(=O)N2CCc3ccccc32)c1 [Example 30, [N-(indolinyl)sulfonyl-N-[3-[(2-phenyl-5-methyloxazol-4-yl)methoxy]benzyl]amino]acetic acid] | 2 |  |
| Cc1oc(-c2ccccc2)nc1COc1ccc(CN(CC(=O)O)S(=O)(=O)N2CCc3ccccc32)cc1 [Example 53, [N-(indolinyl)sulfonyl-N-[4-[(2-phenyl-5-methyloxazol-4-yl)methoxy]benzyl]amino]acetic acid] | 2 |  |
| Cc1ccc(-c2nc(CCOc3ccc(CN(CC(=O)O)S(=O)(=O)N(C)C)cc3)c(C)o2)cc1 [Example 99, [N—(N,N-dimethylamino)sulfonyl-N-[4-[2-[2-(4-methylphenyl)-5-methyloxazol-4-yl]ethoxy]benzyl]amino]acetic acid] | 2 |  |
| Cc1oc(-c2cccs2)nc1CCOc1ccc(CN(CC(=O)O)S(=O)(=O)N2CCc3ccccc32)cc1 [Example 119, [N-(indolinyl)sulfonyl-N-[4-[2-[2-(thiophen-2-yl)-5-methyloxazol-4-yl]ethoxy]benzyl]amino]acetic acid] | 2 |  |
| Cc1oc(-c2ccccc2)nc1CCOc1cccc(CN(CC(=O)O)S(=O)(=O)N2CCCc3ccccc32)c1 [Example 94, [N-(1,2,3,4-tetrahydroquinolinyl)sulfonyl-N-[3-[2-(2-phenyl-5-methyloxazol-4-yl)ethoxy]benzyl]amino]acetic acid] | 2 |  |
| Cc1oc(-c2ccc(C(F)(F)F)cc2)nc1CCOc1ccc(CN(CC(=O)O)S(=O)(=O)N2CCCc3ccccc32)cc1 [Example 122, [N-(1,2,3,4-tetrahydroquinolinyl)sulfonyl-N-[4-[2-[2-(4-trifluoromethylphenyl)-5-methyloxazol-4-yl]ethoxy]benzyl]amino]acetic acid] | 2 |  |
